Assay results published in patent US20260174860A1, “HYBRID COMPOUNDS OF SCLAREOL AND DOXORUBICIN, THEIR SYNTHESIS AND APPLICATION” (INSTITUTE FOR BIOLOGICAL RESEARCH "SINISA STANKOVIC" - …, priority 2023, published 2026).
Where two headings read alike, the source gives them in different places.

Tests used:
Balb/c mice = assay: Comparative toxicology study of DOX and CON1; assay type: in vivo; settings: i.p.; for creatine phosphokinase (CPK): after 72 h, only DOX significant; for other blood parameters (RBC, HGB, HCT, MCV, MCH, MCHC, RDW, PLT, MPV): data not shown; for percentage of lymphocytes (% LYM, LYM, WBC) / percentage of monocytes and granulocytes (% MON and % GRA): over time
Experimental: Male Balb/c mice, aged 7-11 weeks, were sourced from the EL-42BIO/Br-01 (Laboratory of Pharmacology, School of Medicine, University of Thessaly, Larissa, Greece). The mice were kept in an environment with a 12-hour light/dark cycle, humidity of around 50-60%, and a temperature of 20-22° C. They had free access to food and water. The handling and experimentation of the mice were conducted in compliance with the Greek laws (PD 56/2013 and Circular 2215/117550/2013) and the European Union guidelines ([…]). The protocol was approved by the IACUC and Greek authorities (License no. 58376/13.02.2023). The mice were divided into three groups with two mice per group, amounting to a total of 18 mice. They were treated as follows: Group 1 received vehicle (10% DMSO and 5% Tween80); Group 2-DOX received 7 mg/kg of body weight via intraperitoneal injection (i.p.); Group 3 received CON1 at 14 mg/kg of body weight (to achieve a DOX concentration of 7 mg/kg of body weight), i.p. The study took place over three time points: 24 h, 48 h and 72 h. At the end of each period, blood samples were collected from the mice's tails and cheeks, and the mice were euthanized by CO2 inhalation followed by cervical dislocation. Fresh blood samples were analyzed using the scil Vet ABC™Hematology Analyzer (scil animal care company GmbH, Germany), while sera from all samples were extracted and analyzed using the Skyla VB1 Veterinary Clinical Chemistry Analyzer (Skyla Corporation, Taiwan) with the Critical Care Panel (900-330) (Skyla Corporation, Taiwan).

[1] = system: U87, U87-TxR, U251, NCI-H460, NCI-H460/R, DLD1, DLD1-TxR and MRC-5; assay: MTT cytotoxicity across the cell line panel (FIG. 1); assay type: cell-based; settings: Homo sapiens
Experimental: The MTT test was used to evaluate the effect of the compounds on cell viability. The test relies on the reduction of tetrazolium salt (MTT) to formazan, which is catalyzed by the mitochondrial enzyme succinate dehydrogenase. The activity of succinate dehydrogenase, which is indicative of mitochondrial respiration, is taken as an indirect measure of the metabolic activity of the cell, and thus its viability. The MTT-formazan produced is a purple-colored product, whose absorbance is measured at a wavelength of 570 nm. • a) To determine the inhibition of cell growth by SC, different cell lines were exposed to increasing concentrations of SC (5, 10, 25, 50, and 100 μM). […] The absorbance of the samples was measured at 570 nm using a Multiskan Sky Microplate spectrophotometer (ThermoFisher Scientific, USA). The results were analyzed using GraphPad Prism 8.0.2. software, and the IC50 values were determined by non-linear regression. • b) To test the interaction between SC and DOX in terms of cytotoxicity in different cell lines, cells were seeded in 96-well microtiter plates at a density of 2,000 cells per well for NCI-H460, NCI-H460/R, DLD1 and DLD1-TxR, and 4,000 cells per well for MRC-5, U87, U87-TxR, and U251 in 100 μl of the appropriate medium. […]

[2] = system: spheroids of ovarian cancer cell lines that are resistant to DOX; settings: effect of SC; cited from earlier work
[3] = system: P-glycoprotein-deficient NCI-H460 cells; assay: DOX and rhodamine 123 accumulation test, flow cytometry; assay type: cell-based, human; settings: 50 μM SC
Experimental: • a) First, DOX accumulation test was performed on three glioblastoma cell lines, U87, U87-TxR, and U251. Cells were trypsinized and counted, and then 100,000 cells per sample were collected in a tube for flow cytometry and resuspended in 500 μL of culture medium. Cells were treated with 20 μM and 50 µM SC. Immediately after SC treatment, cells were treated with 20 μM DOX, and samples were incubated at 37° C. in a humid atmosphere with 5% CO2 for 60 min. After the accumulation period, the samples were centrifuged, washed twice with cold Phosphate Buffered Saline (PBS), and finally resuspended in 1 mL of PBS. The fluorescence of the samples was read on the FL2 (red channel) of a cytofluorimeter (Partec, Munster, Germany), and the results were analyzed with the software package Summit 4.3. • b) Secondly, DOX and rhodamine 123 accumulation test was performed on non-small cell lung carcinoma cell lines NCI-H460 and NCI-H460/R. Cells were trypsinized and counted, and then 100,000 cells per sample were collected in a tube for flow cytometry and resuspended in 500 μl of culture medium. Cells were treated with 50 μM SC. Immediately after treatment, 5 μM Rho123 was added to one group of samples and the other 20 μM DOX. […] The samples were analyzed using a flow cytometer, reading for rhodamine 123 on FL1 (green channel) and DOX on FL2 (red channel). […]

[4] = CON1 14 mg/kg, at 48 h, disappeared after 72 h
[5] = DOX 7 mg/kg, CON1 14 mg/kg, 24, 48, 72 h

Row | Compound | percentage of eosinophils (% EOS) (Balb/c mice; CON1 14 mg/kg) | Ca levels (Balb/c mice; [4]) | Na levels (Balb/c mice; [4]) | total bicarbonate (tCO2) (Balb/c mice; CON1 14 mg/kg, at 48 h, disappeared by 72 h) | alanine aminotransferase (ALT) (Balb/c mice; [5]) | alkaline phosphatase (ALP) (Balb/c mice; [5]) | creatine phosphokinase (CPK) (Balb/c mice; DOX 7 mg/kg, CON1 14 mg/kg) | other blood parameters (RBC, HGB, HCT, MCV, MCH, MCHC, RDW, PLT, MPV) (Balb/c mice; DOX 7 mg/kg, CON1 14 mg/kg) | percentage of lymphocytes (% LYM, LYM, WBC) (Balb/c mice; DOX 7 mg/kg, CON1 14 mg/kg) | percentage of monocytes and granulocytes (% MON and % GRA) (Balb/c mice; DOX 7 mg/kg, CON1 14 mg/kg) | IC50 ([1]; micromolar range in resistant lines, nanomolar in sensitive ones, read-out: DOX active concentration in resistant cancer cell lines) | levels of K (Balb/c mice; DOX 7 mg/kg, 24, 48, 72 h) | IC50 ([1]; range depending on the cell type, FIG. 1, MTT 72 h, read-out: IC50 value of 50% inhibition of cell growth) | accumulation of DOX in spheroids [2] | increase of the cytotoxicity of DOX [2] | DOX or rhodamine 123 accumulation [3]
1 | N1-((25,3S,4S,6R)-3-hydroxy-2-methyl-6-(((1S,3S)-3,5,12-trihydroxy-3-(2-hydroxyacetyl)-10-methoxy-6,11-dioxo-1,2,3,4,6,11-hexahydrotetracen-1-yl)oxy)tetrahydro-2H-pyran-4-yl)-N4-(3-((4-((R,E)-3-hydroxy-5-((1R,2R,4aS,8aS)-2-hydroxy-2,5,5,8a-tetramethyldecahydronaphthalen-1-yl)-3-methylpent-1-en-1-yl)benzyl)amino)propyl) succinamide [CON1] | not significantly relevant | temporary increase | decrease | transiently increased | did not change | increase ALP levels after 48 h | increased | None of the tested compounds, DOX or CON1, had any impact | did not have any impact | did not have any impact |  |  |  |  |  | 
2 | COc1cccc2c1C(=O)c1c(O)c3c(c(O)c1C2=O)C[C@@](O)(C(=O)CO)C[C@@H]3O[C@H]1C[C@H](N)[C@H](O)[C@H](C)O1 [DOX, doxorubicin] |  |  |  |  | increase | significantly decrease | increased | None of the tested compounds, DOX or CON1, had any impact | decreased | increased | < 5 µM | consistently increased |  |  |  | 
3 | C=C[C@](C)(O)CC[C@@H]1[C@@]2(C)CCCC(C)(C)[C@@H]2CC[C@@]1(C)O [SC, sclareol] |  |  |  |  |  |  |  |  |  |  |  |  | 20 to 70 µM | did not enhance | 4.5 times | did not show any increase
